The text below walks through data of ChEMBL document CHEMBL5465560, “Selectivity Literature for EUbOPEN Chemogenomic Library” (2024).

The structures appear in SMILES notation.

Assay [1] addresses T1, Protein kinase C zeta type (Homo sapiens) (UniProt Q05513).
T1 sequence (whole entry): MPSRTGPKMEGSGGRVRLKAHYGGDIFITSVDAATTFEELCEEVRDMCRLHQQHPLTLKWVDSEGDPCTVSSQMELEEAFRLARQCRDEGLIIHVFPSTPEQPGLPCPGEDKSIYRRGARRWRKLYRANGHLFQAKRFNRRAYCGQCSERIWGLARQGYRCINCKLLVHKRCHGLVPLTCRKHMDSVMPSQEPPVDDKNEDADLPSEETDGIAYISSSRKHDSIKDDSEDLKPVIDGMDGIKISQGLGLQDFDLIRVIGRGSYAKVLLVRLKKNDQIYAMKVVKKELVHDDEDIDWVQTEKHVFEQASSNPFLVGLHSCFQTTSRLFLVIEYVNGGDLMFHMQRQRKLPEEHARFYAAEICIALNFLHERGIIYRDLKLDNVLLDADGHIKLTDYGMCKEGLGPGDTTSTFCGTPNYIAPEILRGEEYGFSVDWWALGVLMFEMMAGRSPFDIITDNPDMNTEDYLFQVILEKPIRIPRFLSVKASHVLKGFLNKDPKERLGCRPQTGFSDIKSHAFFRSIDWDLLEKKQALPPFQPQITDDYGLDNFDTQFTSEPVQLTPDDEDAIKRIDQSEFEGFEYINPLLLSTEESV
The assay is described as follows: Selectivity interaction (ProQinase) EUB0000171b PRKCZ. As to conditions: at 1 µM.

In assay [2] the target is T2, 3-phosphoinositide-dependent protein kinase 1 (Homo sapiens) (UniProt O15530).
T2 sequence (whole entry): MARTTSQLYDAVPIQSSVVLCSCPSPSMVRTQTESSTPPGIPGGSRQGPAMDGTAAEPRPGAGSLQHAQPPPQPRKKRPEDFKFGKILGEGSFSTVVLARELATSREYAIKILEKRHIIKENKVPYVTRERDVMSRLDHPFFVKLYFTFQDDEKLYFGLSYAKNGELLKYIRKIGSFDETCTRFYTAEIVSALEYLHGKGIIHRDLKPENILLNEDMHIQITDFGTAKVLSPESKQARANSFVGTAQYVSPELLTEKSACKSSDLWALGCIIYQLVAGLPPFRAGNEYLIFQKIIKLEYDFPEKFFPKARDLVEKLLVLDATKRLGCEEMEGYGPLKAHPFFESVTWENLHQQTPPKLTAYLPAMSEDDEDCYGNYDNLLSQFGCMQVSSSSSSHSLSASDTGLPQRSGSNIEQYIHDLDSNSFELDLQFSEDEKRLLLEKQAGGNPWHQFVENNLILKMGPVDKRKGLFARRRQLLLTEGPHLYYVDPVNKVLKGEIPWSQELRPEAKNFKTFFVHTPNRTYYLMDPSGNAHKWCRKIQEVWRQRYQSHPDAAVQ
The assay is described as follows: Selectivity interaction (Ambit KINOMEscan and KiNATiv profiling in Jurkat cells) EUB0000090b PDPK1. Format: cell-based. To be noted: at 1 µM.

Assay [3] concerns the target T3, Hormonally up-regulated neu tumor-associated kinase (Homo sapiens) (UniProt P57058).
T3 sequence (whole entry): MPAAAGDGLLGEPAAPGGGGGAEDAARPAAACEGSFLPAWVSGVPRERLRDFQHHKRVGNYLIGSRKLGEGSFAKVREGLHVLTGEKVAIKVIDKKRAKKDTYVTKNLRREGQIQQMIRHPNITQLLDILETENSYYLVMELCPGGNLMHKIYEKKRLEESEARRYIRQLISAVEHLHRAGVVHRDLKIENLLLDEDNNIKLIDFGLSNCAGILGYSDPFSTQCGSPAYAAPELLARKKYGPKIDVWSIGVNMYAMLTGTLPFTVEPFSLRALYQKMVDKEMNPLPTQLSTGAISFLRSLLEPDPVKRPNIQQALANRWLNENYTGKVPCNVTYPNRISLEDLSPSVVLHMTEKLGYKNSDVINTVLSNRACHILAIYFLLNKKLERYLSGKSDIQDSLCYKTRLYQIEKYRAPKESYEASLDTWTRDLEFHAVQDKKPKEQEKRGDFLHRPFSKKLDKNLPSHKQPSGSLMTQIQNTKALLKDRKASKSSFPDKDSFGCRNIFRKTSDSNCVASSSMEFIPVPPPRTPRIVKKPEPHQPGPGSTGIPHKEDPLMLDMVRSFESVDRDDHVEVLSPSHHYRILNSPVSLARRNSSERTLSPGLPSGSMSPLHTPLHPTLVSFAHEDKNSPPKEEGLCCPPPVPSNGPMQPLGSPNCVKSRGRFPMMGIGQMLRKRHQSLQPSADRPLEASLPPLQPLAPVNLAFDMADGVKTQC
The assay is described as follows: Selectivity interaction (KinomeScan (DiscoverX)) EUB0001049a HUNK. As to conditions: at 1 µM.

The target in assay [4] is T4, Phosphatidylinositol 5-phosphate 4-kinase type-2 beta (Homo sapiens) (UniProt P78356).
T4 sequence (whole entry): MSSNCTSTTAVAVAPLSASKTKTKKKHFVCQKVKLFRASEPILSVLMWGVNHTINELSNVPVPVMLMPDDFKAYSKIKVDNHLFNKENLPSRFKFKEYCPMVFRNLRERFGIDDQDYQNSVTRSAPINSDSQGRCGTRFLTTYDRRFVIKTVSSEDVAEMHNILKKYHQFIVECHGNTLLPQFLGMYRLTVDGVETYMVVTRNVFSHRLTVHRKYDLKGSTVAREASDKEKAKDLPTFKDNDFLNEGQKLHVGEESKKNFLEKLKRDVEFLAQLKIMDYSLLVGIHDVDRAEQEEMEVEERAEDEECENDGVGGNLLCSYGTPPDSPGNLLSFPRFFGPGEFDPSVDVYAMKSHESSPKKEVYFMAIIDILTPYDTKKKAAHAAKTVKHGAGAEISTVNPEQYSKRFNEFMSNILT
The assay is described as follows: Selectivity interaction (KinomeScan (DiscoverX)) EUB0001049a PIP4K2B. As to conditions: at 1 µM.

In assay [5] the target is T5, Activin receptor type-1B (Homo sapiens) (UniProt P36896).
T5 sequence (whole entry): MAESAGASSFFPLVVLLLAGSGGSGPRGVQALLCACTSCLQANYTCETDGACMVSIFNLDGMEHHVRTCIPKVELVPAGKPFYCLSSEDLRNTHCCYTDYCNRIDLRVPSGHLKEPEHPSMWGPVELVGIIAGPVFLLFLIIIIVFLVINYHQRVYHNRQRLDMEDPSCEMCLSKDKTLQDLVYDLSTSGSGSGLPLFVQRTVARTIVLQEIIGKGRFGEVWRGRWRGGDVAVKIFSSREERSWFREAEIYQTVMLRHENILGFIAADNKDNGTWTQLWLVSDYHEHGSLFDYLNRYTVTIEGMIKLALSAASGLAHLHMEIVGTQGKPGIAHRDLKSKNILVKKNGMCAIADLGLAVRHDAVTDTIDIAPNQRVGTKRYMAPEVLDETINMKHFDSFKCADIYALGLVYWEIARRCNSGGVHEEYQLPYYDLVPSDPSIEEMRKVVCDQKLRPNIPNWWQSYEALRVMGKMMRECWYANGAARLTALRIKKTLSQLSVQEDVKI
The assay is described as follows: Selectivity interaction (KinomeScan (DiscoverX)) EUB0000607a ACVR1B. As to conditions: at 10 µM.

On to `C=CC(=O)Nc1cccc(C(=O)Nc2ccc(Nc3cc(-c4[nH]c(SC)nc4C)ccn3)cc2)c1`, for which, in assay [1], the % of control was 90%.
Compound `CN(C)C/C=C/C(=O)Nc1ccc(C(=O)N2CCCC(Nc3ncc(Cl)c(-c4c[nH]c5ccccc45)n3)C2)cc1` (stereo not given) yielded a % of control in assay [2] of 99%.
As to `COc1cc(Nc2nc(C)cc(-c3cnn4nc(OC)ccc34)n2)cc(C(F)(F)F)c1`, the % of control in assay [3] amounted to 99%; in assay [4], 96%.
Consider `CNC(=O)Nc1ccc(-c2nc(N3CC4CCC(C3)O4)c3cnn(C4CCC5(CC4)OCCO5)c3n2)cc1`, for which the % of control in assay [5] amounted to 100%.
